Consider 14 compounds from ChEMBL document CHEMBL4382214, “Antileishmanial activity of new hybrid tetrahydroquinoline and quinoline derivatives with phosphorus substituents” (Eur J Med Chem, 2019).

Data set [1] is described as follows: Inhibition of Leishmania donovani Top1B expressed in Top1B deficient Saccharomyces cerevisiae EKY3 assessed as decrease in relaxation of supercoiled pSK DNA preincubated for 15 mins followed by DNA addition and measured after 5 mins by agarose gel electrophoresis.
Another data set concerns the target T1, DNA topoisomerase 1 (Homo sapiens, UniProt P11387).
T1 sequence (P11387 whole entry): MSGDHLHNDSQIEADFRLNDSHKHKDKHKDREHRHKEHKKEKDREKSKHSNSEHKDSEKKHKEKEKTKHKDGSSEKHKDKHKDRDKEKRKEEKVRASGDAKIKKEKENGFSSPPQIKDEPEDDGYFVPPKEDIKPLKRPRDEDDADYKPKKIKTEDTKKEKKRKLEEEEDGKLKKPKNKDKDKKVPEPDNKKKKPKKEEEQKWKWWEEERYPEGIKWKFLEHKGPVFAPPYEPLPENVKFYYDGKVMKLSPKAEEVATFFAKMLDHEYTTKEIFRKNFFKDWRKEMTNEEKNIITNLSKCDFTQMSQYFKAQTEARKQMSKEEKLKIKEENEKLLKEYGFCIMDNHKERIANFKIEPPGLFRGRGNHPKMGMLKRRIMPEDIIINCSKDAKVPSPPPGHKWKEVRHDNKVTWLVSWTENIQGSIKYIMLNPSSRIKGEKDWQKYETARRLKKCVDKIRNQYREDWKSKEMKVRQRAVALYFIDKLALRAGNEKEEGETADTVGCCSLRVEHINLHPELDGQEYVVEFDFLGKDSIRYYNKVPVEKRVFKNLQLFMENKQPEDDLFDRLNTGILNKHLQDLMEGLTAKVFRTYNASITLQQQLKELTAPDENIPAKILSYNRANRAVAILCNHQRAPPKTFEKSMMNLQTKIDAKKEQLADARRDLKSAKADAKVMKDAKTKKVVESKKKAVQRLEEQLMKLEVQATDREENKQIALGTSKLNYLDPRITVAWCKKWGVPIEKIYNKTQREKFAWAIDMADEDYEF
Description: Inhibition of human Top1B expressed in Top1B deficient Saccharomyces cerevisiae EKY3 assessed as decrease in relaxation of supercoiled pSK DNA preincubated for 15 mins followed by DNA addition and measured after 5 mins by agarose gel electrophoresis.

The subject of data set [2] is Leishmania donovani. Description: Inhibition of Leishmania donovani Top1B expressed in Top1B deficient Saccharomyces cerevisiae EKY3 assessed as decrease in relaxation of supercoiled pSK DNA preincubated for 15 mins followed by DNA addition and measured after 4 to 16 mins by agarose gel electrophoresis.
Data set [3] has as its system Leishmania donovani. Description: Inhibition of Leishmania donovani Top1B expressed in Top1B deficient Saccharomyces cerevisiae EKY3 assessed as decrease in relaxation of supercoiled pSK DNA preincubated for 15 mins followed by DNA addition and measured after 2 mins by agarose gel electrophoresis.
In data set [4] the test system is Leishmania infantum. Description: Leishmanicidal activity against promastigote stage of iRFP expressing Leishmania infantum BCN150 assessed as decrease in parasite viability after 72 hrs by fluorescence assay. Conditions: BCN150, 72 h. The class given is functional, organism-based.
Data set [5] deals with Leishmania infantum. As to the kind of experiment: Leishmanicidal activity against amastigote stage of iRFP expressing Leishmania infantum BCN150 infected in BALB/c mouse splenocytes assessed as decrease in parasite viability by fluorescence assay. It counts as functional, organism-based.
Data set [6] is described as follows: Selectivity index, ratio of CC50 for BALB/c mouse splenocytes to EC50 for amastigote stage of iRFP expressing Leishmania infantum BCN150 infected in BALB/c mouse splenocytes. It counts as toxicity, cell-based. The settings on record: read-out: Ratio CC50/EC50.
In data set [7] the test system is Leishmania donovani. As to the kind of experiment: Inhibition of Leishmania donovani Top1B expressed in Top1B deficient Saccharomyces cerevisiae EKY3 assessed as decrease in relaxation of supercoiled pSK DNA preincubated for 15 mins followed by DNA addition and measured after 2 to 16 mins by agarose gel electrophoresis.
A short description of data set [8]: Cytotoxicity against BALB/c mouse splenocytes assessed as reduction in cell viability by alamar blue assay. The class given is cell-based, Splenocyte. Background: The colour change of resazurin is a common sign of viable cells or microbes.
Data set [9] addresses T2, DNA topoisomerase 1 (Homo sapiens) (UniProt P11387).
T2 sequence (whole entry): T1 sequence (P11387 whole entry)
As to the kind of experiment: Inhibition of human Top1B expressed in Top1B deficient Saccharomyces cerevisiae EKY3 assessed as decrease in relaxation of supercoiled pSK DNA preincubated for 15 mins followed by DNA addition and measured after 2 to 16 mins by agarose gel electrophoresis.

The test system of data set [10] is Leishmania donovani. As to the kind of experiment: Inhibition of Leishmania donovani Top1B expressed in Top1B deficient Saccharomyces cerevisiae EKY3 assessed as decrease in relaxation of supercoiled pSK DNA preincubated for 15 mins followed by DNA addition and measured after 2 to 4 mins by agarose gel electrophoresis.
Data set [11] deals with T2, DNA topoisomerase 1 (Homo sapiens). As to the kind of experiment: Inhibition of human Top1B expressed in Top1B deficient Saccharomyces cerevisiae EKY3 assessed as decrease in relaxation of supercoiled pSK DNA preincubated for 15 mins followed by DNA addition and measured after 8 to 16 mins by agarose gel electrophoresis.
Data set [12] deals with Leishmania donovani. As to the kind of experiment: Inhibition of Leishmania donovani Top1B expressed in Top1B deficient Saccharomyces cerevisiae EKY3 assessed as decrease in relaxation of supercoiled pSK DNA preincubated for 15 mins followed by DNA addition and measured after 8 to 16 mins by agarose gel electrophoresis.
Data set [13] has as its target T2, DNA topoisomerase 1 (Homo sapiens). Description: Inhibition of human Top1B expressed in Top1B deficient Saccharomyces cerevisiae EKY3 assessed as decrease in relaxation of supercoiled pSK DNA preincubated for 15 mins followed by DNA addition and measured after 2 to 4 mins by agarose gel electrophoresis.

Each structure is given as a SMILES string. Activity calls are given as the source filed them. The rule behind the calls is not given here.

A word on the IC50: it is the point on the concentration scale where inhibition reaches its midpoint. `CC[C@@]1(O)C(=O)OCc2c1cc1n(c2=O)Cc2cc3ccccc3nc2-1` [CAMPTOTHECIN]: the IC50 result (in [1]; at DNA topoisomerase 1) was “Not Active” each time. The inhibition result in the data set on Leishmania donovani [2] was “inactive”. In addition, the inhibition entry with Leishmania donovani [3] was “Active”.

By EC50 is commonly meant the midpoint of the concentration-response curve. For orientation: CC50 means the concentration giving 50% cytotoxicity. Regarding `O=P(c1ccccc1)(c1ccccc1)c1cccc2c(-c3ccccc3)cc(-c3ccc4ccccc4c3)nc12`, the EC50 in the data set on Leishmania infantum [4] was determined as 4.91 µM; with Leishmania infantum [5] it was 4140 nM. Further, the concentration for half-maximal inhibition (IC50) entry (in data set [1]; on DNA topoisomerase 1) was “Not Active” each time. For the same compound, the selectivity ratio in data set [6] stood at 13.8. In addition, the inhibition entry with Leishmania donovani [7] was “inactive”. In data set [8], the half-maximal cytotoxic concentration (CC50) came to 57.1 µM.

With `Fc1ccc([C@H]2C[C@@H](c3ccccc3)Nc3c2cccc3P(c2ccccc2)c2ccccc2)cc1` (relative stereo), the half-maximal effective concentration (EC50) was 3.14 µM with Leishmania infantum [4] and 1750 nM in the data set with Leishmania infantum [5]. Moreover, the inhibition result (in data set [9]; in the data set with Leishmania donovani [7]) was “Active” throughout. Moreover, the results for the IC50 (in data set [1] (read-out: IC50); on DNA topoisomerase 1 (read-out: IC50)) were 54.2 µM and 42.2 µM, respectively. The selectivity ratio in [6] is 51.8. Also, the CC50 in data set [8] is 90.6 µM.

Turning to `Fc1ccc(-c2cc(-c3ccc(C(F)(F)F)cc3)nc3c(P(=S)(c4ccccc4)c4ccccc4)cccc23)cc1`, the results for the EC50 in the data set on Leishmania infantum [4] and in the data set with Leishmania infantum [5] were 8.83 µM and > 10000 nM, respectively. Moreover, the inhibition entry (in the data set with Leishmania donovani [10]; in data set [13]) was “Active” each time. Besides, the IC50 in data set [1] (read-out: IC50) is 34.3 µM; at DNA topoisomerase 1 (read-out: IC50) it was 27.4 µM. The inhibition result (in [11]; with Leishmania donovani [12]) was “inactive” in each case. Further, the CC50 in data set [8] is 89.7 µM.

With `COc1ccc([C@@H]2C[C@H](c3ccc(C)cc3)c3cccc(P(c4ccccc4)c4ccccc4)c3N2)cc1` (relative stereo), the EC50 in the data set on Leishmania infantum [4] stood at 27.7 µM; in the data set with Leishmania infantum [5] it was 5960 nM. The inhibition result (in [9]; in the data set with Leishmania donovani [7]) was “Active” in each case. Also, the half-inhibitory concentration (IC50) in data set [1] (read-out: IC50) worked out at 23.6 µM; at DNA topoisomerase 1 (read-out: IC50) it was 84.6 µM. Besides, the selectivity ratio in data set [6] was > 8.4. In data set [8], the CC50 was > 50 µM.

On to `O=P(c1ccccc1)(c1ccccc1)c1cccc2c1N[C@H](c1ccc(F)c(F)c1)C[C@@H]2c1ccc(F)cc1` (relative stereo), for which the EC50 was 6.15 µM in the data set on Leishmania infantum [4] and 1460 nM in the data set with Leishmania infantum [5]. The IC50 entry (in [1]; at DNA topoisomerase 1) was “Not Active” each time. The selectivity ratio in data set [6] was found to be 43.6. Moreover, the inhibition result with Leishmania donovani [7] is “inactive”. Moreover, the 50% cytotoxic concentration (CC50) in data set [8] came to 63.7 µM.

For `Cc1ccc([C@H]2C[C@@H](c3ccc(F)cc3)Nc3c2cccc3P(c2ccccc2)c2ccccc2)cc1` (relative stereo), the EC50 in the data set on Leishmania infantum [4] came to 20.9 µM; with Leishmania infantum [5] it was 1790 nM. Further, the inhibition result (in data set [9]; in the data set on Leishmania donovani [7]) was “Active” in each case. The IC50 was 47.9 µM in data set [1] (read-out: IC50) and 44.8 µM on DNA topoisomerase 1 (read-out: IC50). For the same compound, the selectivity ratio in [6] is 26.2. The CC50 in data set [8] worked out at 47 µM.

As to `Cc1ccc([C@H]2C[C@@H](c3ccc(F)cc3)Nc3c2cccc3P(=O)(c2ccccc2)c2ccccc2)cc1` (relative stereo), the results for the EC50 with Leishmania infantum [4] and with Leishmania infantum [5] were 7.1 µM and 1850 nM, respectively. Also, the IC50 entry (in data set [1]; at DNA topoisomerase 1) was “Not Active” in each case. Besides, the selectivity ratio in data set [6] amounted to 7.47. The inhibition result with Leishmania donovani [7] was “inactive”. For the same compound, the CC50 in data set [8] stood at 13.8 µM.

As to `O=[N+]([O-])c1ccc([C@@H]2C[C@H](c3ccccc3)c3cccc(P(=S)(c4ccccc4)c4ccccc4)c3N2)cc1` (relative stereo), the EC50 with Leishmania infantum [4] stood at 36.4 µM; with Leishmania infantum [5], 2730 nM. In addition, the half-inhibitory concentration (IC50) entry (in data set [1]; at DNA topoisomerase 1) was “Not Active” each time. Also, in data set [6], the selectivity ratio stood at 20.9. Moreover, the inhibition result with Leishmania donovani [7] is “inactive”. The CC50 in data set [8] worked out at 57 µM.

As to `COc1ccccc1[C@@H]1C[C@H](c2ccccc2)c2cccc(P(=O)(c3ccccc3)c3ccccc3)c2N1` (relative stereo), the EC50 in the data set on Leishmania infantum [4] is 9.39 µM; in the data set on Leishmania infantum [5], 980 nM. Moreover, the IC50 result (in data set [1]; at DNA topoisomerase 1) was “Not Active” throughout. In addition, the selectivity ratio in data set [6] amounted to 34.9. The inhibition result with Leishmania donovani [7] is “inactive”. Further, the 50% cytotoxic concentration (CC50) in data set [8] was determined as 34.2 µM.

As to `Fc1ccc(-c2cc(-c3ccc(F)cc3)c3cccc(P(=S)(c4ccccc4)c4ccccc4)c3n2)cc1`, the EC50 in the data set on Leishmania infantum [4] was 11 µM; in the data set on Leishmania infantum [5] it was > 10000 nM. Moreover, the IC50 entry (in [1]; at DNA topoisomerase 1) was “Not Active” throughout. Moreover, the inhibition result in the data set with Leishmania donovani [7] is “inactive”. Also, the CC50 in data set [8] came to 92.1 µM.

As to `C[C@@H]1[C@H](O)[C@@H](C)/C=C/C=C/C=C/C=C/C=C/C=C/C=C/[C@H](O[C@@H]2O[C@H](C)[C@@H](O)[C@H](N)[C@@H]2O)C[C@@H]2O[C@](O)(C[C@@H](O)C[C@@H](O)[C@H](O)CC[C@@H](O)C[C@@H](O)CC(=O)O[C@H]1C)C[C@H](O)[C@H]2C(=O)O` [AMPHOTERICIN B], the EC50 came to 0.77 µM in the data set with Leishmania infantum [4] and 320 nM in the data set with Leishmania infantum [5]. Further, the selectivity ratio in [6] worked out at 62.5. Moreover, the half-maximal cytotoxic concentration (CC50) in [8] was > 20 µM.

For `O=P(c1ccccc1)(c1ccccc1)c1cccc2c(-c3ccc(F)cc3)cc(-c3ccccc3)nc12`, the EC50 in the data set with Leishmania infantum [4] came to 6.01 µM; in the data set with Leishmania infantum [5], 1390 nM. The IC50 entry (in [1]; at DNA topoisomerase 1) was “Not Active” each time. Further, the selectivity ratio in data set [6] is 51.1. For the same compound, the inhibition entry with Leishmania donovani [7] was “inactive”. Further, the half-maximal cytotoxic concentration (CC50) in [8] turned out to be 71 µM.

On to `COc1ccc([C@@H]2C[C@H](c3ccccc3)c3cccc(P(=S)(c4ccccc4)c4ccccc4)c3N2)cc1` (relative stereo), for which the EC50 in the data set with Leishmania infantum [4] came to 10.7 µM; in the data set with Leishmania infantum [5], 610 nM. In addition, the inhibition result in the data set with Leishmania donovani [10] is “Active”. Also, the IC50 in data set [1] (read-out: IC50) is 93.7 µM; on DNA topoisomerase 1 it was “Not Active”. Besides, the inhibition entry with Leishmania donovani [12] is “inactive”. In addition, the selectivity ratio in [6] came to 56.9. Besides, in [8], the CC50 is 34.7 µM.
